In one data set the target is T1, hAMY3 receptor (Homo sapiens, UniProt O60896+P30988).
T1 sequence (P30988 25-474): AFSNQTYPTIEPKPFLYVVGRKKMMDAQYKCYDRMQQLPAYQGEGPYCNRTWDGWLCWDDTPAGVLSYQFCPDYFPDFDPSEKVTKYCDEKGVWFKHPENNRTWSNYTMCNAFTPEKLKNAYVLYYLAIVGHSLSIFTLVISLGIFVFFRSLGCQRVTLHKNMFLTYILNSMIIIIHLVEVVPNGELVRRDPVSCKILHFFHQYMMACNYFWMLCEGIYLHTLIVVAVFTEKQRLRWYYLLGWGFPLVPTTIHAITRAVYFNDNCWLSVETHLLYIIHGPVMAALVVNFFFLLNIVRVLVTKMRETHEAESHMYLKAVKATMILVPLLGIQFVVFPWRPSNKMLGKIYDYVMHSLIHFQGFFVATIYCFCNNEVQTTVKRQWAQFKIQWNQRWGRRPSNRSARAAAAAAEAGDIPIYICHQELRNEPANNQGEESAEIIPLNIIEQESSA
T1 sequence (O60896 24-148 partner): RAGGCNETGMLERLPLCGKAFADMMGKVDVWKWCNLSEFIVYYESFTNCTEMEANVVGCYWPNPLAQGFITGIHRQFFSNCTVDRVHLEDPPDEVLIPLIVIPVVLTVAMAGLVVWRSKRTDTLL
Description: cAMP assay for in vitro receptor activation, hAMY3-R. The class given is cell-based. As to conditions: cAMP assay, hAMY3 receptor; read-out: hAMY3R EC50. In outline:
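Read-out is TR-FRET cAMP signal, recorded one hour after reagent addition, following 30 min room-temperature stimulation of stable hAMY3 cells with graded compound doses in casein/IBMX (0.5 mM) buffer.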
In general terms: cAMP levels reflect the balance of adenylyl cyclase and phosphodiesterase activity.

Another data set addresses hAM1 receptor (Homo sapiens, UniProt O60895+Q16602). The experiment in a line: cAMP assay for in vitro receptor activation, hAM1-R. The class given is cell-based. The conditions noted are these: cAMP assay, hAM1 receptor; read-out: hAM1R EC50. In outline:
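Monoclonal stable hAM1-overexpressing cells, thawed from frozen stock; 8000 cells/well in DPBS + 0.05% casein + 0.5 mM IBMX; read-out cAMP.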

The nature of data set [1]: Physical stability of peptide analogues (Thioflavin T fibrillation). As to conditions: maximum ThT signal normalized between hAMY maximum and buffer background; 40° C., shaking, four days; pH 7 per table title. The class given is physicochemical. The method in brief:
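Maximum ThT emission at 480 nm, after LOESS smoothing, is given as percent of the span from buffer background to hAMY. Conditions: 50 mM buffer at pH 4 or 7, 4 μM dye, 40 °C, repeated shaking, readings every 10 min for four days.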

Bridge positions count the residues as written; N and C are the ends. Square brackets hold non-standard residues; d marks the D form. Peptide text beside a SMILES is read from it. Hyp = O=C(O)[C@@H]1C[C@@H](O)CN1; Cit = NC(=O)NCCC[C@H](N)C(=O)O

hAM1 receptor, sequence (Q16602 23-461): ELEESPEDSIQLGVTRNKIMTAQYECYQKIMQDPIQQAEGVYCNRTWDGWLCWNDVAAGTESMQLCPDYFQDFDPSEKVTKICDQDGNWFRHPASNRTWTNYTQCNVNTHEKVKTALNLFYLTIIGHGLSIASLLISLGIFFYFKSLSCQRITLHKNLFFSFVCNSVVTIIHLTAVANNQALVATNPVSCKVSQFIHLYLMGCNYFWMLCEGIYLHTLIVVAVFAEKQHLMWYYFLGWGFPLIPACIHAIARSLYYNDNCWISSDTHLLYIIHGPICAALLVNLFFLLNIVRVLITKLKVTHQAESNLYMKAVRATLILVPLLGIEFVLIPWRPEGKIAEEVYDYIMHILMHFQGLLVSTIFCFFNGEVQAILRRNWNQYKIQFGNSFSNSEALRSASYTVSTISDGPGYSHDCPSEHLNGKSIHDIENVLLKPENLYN
hAM1 receptor, sequence (O60895 43-175 partner): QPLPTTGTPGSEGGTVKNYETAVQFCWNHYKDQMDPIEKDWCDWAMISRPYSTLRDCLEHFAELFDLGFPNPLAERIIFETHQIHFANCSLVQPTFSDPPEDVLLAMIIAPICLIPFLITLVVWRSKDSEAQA

The EC50 is the concentration giving half of the maximal effect. In the case of `CC[C@H](C)[C@H](NC(=O)[C@H](CCC(N)=O)NC(=O)[C@H](Cc1c[nH]cn1)NC(=O)[C@H](C)NC(=O)[C@H](CC(C)C)NC(=O)[C@H](CCCNC(N)=O)NC(=O)[C@H](CCC(N)=O)NC(=O)[C@@H](NC(=O)[C@@H](NC(=O)[C@@H]1CSSC[C@H](NC(=O)[C@@H](N)CCCCN)C(=O)N[C@@H](CC(N)=O)C(=O)N[C@@H]([C@@H](C)O)C(=O)N[C@@H](C)C(=O)N[C@@H]([C@@H](C)O)C(=O)N1)[C@@H](C)O)C(C)C)C(=O)N[C@@H](Cc1ccc(O)cc1)C(=O)N[C@@H](CCC(N)=O)C(=O)N[C@@H](Cc1ccccc1)C(=O)N[C@@H](C)C(=O)N[C@@H](CC(=O)O)C(=O)N[C@@H](CCCCN)C(=O)N[C@@H](CC(=O)O)C(=O)N[C@@H](CCCCN)C(=O)N[C@@H](CC(=O)O)C(=O)N[C@@H](CC(N)=O)C(=O)N[C@H](C(=O)N[C@@H](C)C(=O)N1CCC[C@H]1C(=O)N1CCC[C@H]1C(=O)N[C@H](C(=O)N[C@@H](CC(N)=O)C(=O)N[C@H](C(=O)NCC(=O)N[C@@H](CO)C(=O)N[C@@H](CC(N)=O)C(=O)NCC(=O)N1C[C@H](O)C[C@H]1C(N)=O)C(C)C)[C@@H](C)O)C(C)C` [compound 249] (H-KCNTATCTVQ[Cit]LAHQIYQFADKDKDNVAPPTNVGSNG[Hyp]-NH2; disulfide 2-7; N-terminus assumed), the results for the EC50 at hAMY3 receptor and at hAM1 receptor were 6 pM and above 5 µM, respectively. Also, the “Max ThT signal (%)” value in data set [1] is 15.600%.

For `CC[C@H](C)[C@H](NC(=O)[C@H](CCC(N)=O)NC(=O)[C@H](Cc1c[nH]cn1)NC(=O)[C@H](C)NC(=O)[C@H](CC(C)C)NC(=O)[C@H](CCCNC(N)=O)NC(=O)[C@H](CCC(N)=O)NC(=O)[C@@H](NC(=O)[C@@H](NC(=O)[C@@H]1CSSC[C@H](NC(=O)[C@@H](N)CCCCN)C(=O)N[C@@H](CC(N)=O)C(=O)N[C@@H]([C@@H](C)O)C(=O)N[C@@H](C)C(=O)N[C@@H]([C@@H](C)O)C(=O)N1)[C@@H](C)O)C(C)C)C(=O)N[C@@H](Cc1ccc(O)cc1)C(=O)N[C@@H](CCC(N)=O)C(=O)N[C@@H](Cc1ccccc1)C(=O)N[C@H](C(=O)N[C@@H](CC(=O)O)C(=O)N[C@@H](CCCCN)C(=O)N[C@@H](CC(=O)O)C(=O)N[C@@H](C)C(=O)N[C@@H](CC(=O)O)C(=O)N[C@@H](CC(N)=O)C(=O)N[C@H](C(=O)N[C@@H](C)C(=O)N1CCC[C@H]1C(=O)N1CCC[C@H]1C(=O)N[C@H](C(=O)N[C@@H](CC(N)=O)C(=O)N[C@H](C(=O)NCC(=O)N[C@@H](CO)C(=O)N[C@@H](CC(N)=O)C(=O)NCC(=O)N1C[C@H](O)C[C@H]1C(N)=O)C(C)C)[C@@H](C)O)C(C)C)[C@@H](C)O` [compound 250] (H-KCNTATCTVQ[Cit]LAHQIYQFTDKDADNVAPPTNVGSNG[Hyp]-NH2; disulfide 2-7; N-terminus assumed), the EC50 at hAMY3 receptor was 11 pM; at hAM1 receptor it was above 5 µM. In data set [1], the “Max ThT signal (%)” value came to 6.400%.

As for `CC[C@H](C)[C@H](NC(=O)[C@H](CCC(N)=O)NC(=O)[C@H](Cc1c[nH]cn1)NC(=O)[C@H](C)NC(=O)[C@H](CC(C)C)NC(=O)[C@H](CCCNC(N)=O)NC(=O)[C@H](CCC(N)=O)NC(=O)[C@@H](NC(=O)[C@@H](NC(=O)[C@@H]1CSSC[C@H](NC(=O)[C@@H](N)CCCCN)C(=O)N[C@@H](CC(N)=O)C(=O)N[C@@H]([C@@H](C)O)C(=O)N[C@@H](C)C(=O)N[C@@H]([C@@H](C)O)C(=O)N1)[C@@H](C)O)C(C)C)C(=O)N[C@@H](Cc1ccc(O)cc1)C(=O)N[C@@H](CCC(N)=O)C(=O)N[C@@H](Cc1ccccc1)C(=O)N[C@H](C(=O)N[C@@H](CC(=O)O)C(=O)N[C@@H](CCCCN)C(=O)N[C@@H](CC(=O)O)C(=O)N[C@@H](CCCCN)C(=O)N[C@@H](CC(=O)O)C(=O)N[C@@H](CC(N)=O)C(=O)N[C@@H](C)C(=O)N[C@@H](C)C(=O)N1CCC[C@H]1C(=O)N1CCC[C@H]1C(=O)N[C@H](C(=O)N[C@@H](CC(N)=O)C(=O)N[C@H](C(=O)NCC(=O)N[C@@H](CO)C(=O)N[C@@H](CC(N)=O)C(=O)NCC(=O)N1C[C@H](O)C[C@H]1C(N)=O)C(C)C)[C@@H](C)O)[C@@H](C)O` [compound 251] (H-KCNTATCTVQ[Cit]LAHQIYQFTDKDKDNAAPPTNVGSNG[Hyp]-NH2; disulfide 2-7; N-terminus assumed), the EC50 on hAMY3 receptor was 6 pM; on hAM1 receptor, above 5 µM. In data set [1], the “Max ThT signal (%)” value is 10.600%.

Turning to `CC[C@H](C)[C@H](NC(=O)[C@H](CCC(N)=O)NC(=O)[C@H](Cc1c[nH]cn1)NC(=O)[C@H](C)NC(=O)[C@H](CC(C)C)NC(=O)[C@H](CCCNC(N)=O)NC(=O)[C@H](CCC(N)=O)NC(=O)[C@@H](NC(=O)[C@@H](NC(=O)[C@@H]1CSSC[C@H](NC(=O)[C@@H](N)CCCCN)C(=O)N[C@@H](CC(N)=O)C(=O)N[C@@H]([C@@H](C)O)C(=O)N[C@@H](C)C(=O)N[C@@H]([C@@H](C)O)C(=O)N1)[C@@H](C)O)C(C)C)C(=O)N[C@@H](Cc1ccc(O)cc1)C(=O)N[C@@H](CCC(N)=O)C(=O)N[C@@H](Cc1ccccc1)C(=O)N[C@H](C(=O)N[C@@H](CC(=O)O)C(=O)N[C@@H](CCCCN)C(=O)N[C@@H](CC(=O)O)C(=O)N[C@@H](CCCCN)C(=O)N[C@@H](CC(=O)O)C(=O)N[C@@H](CC(N)=O)C(=O)N[C@H](C(=O)N[C@@H](C)C(=O)N1CCC[C@H]1C(=O)N[C@@H](C)C(=O)N[C@H](C(=O)N[C@@H](CC(N)=O)C(=O)N[C@H](C(=O)NCC(=O)N[C@@H](CO)C(=O)N[C@@H](CC(N)=O)C(=O)NCC(=O)N1C[C@H](O)C[C@H]1C(N)=O)C(C)C)[C@@H](C)O)C(C)C)[C@@H](C)O` [compound 252] (H-KCNTATCTVQ[Cit]LAHQIYQFTDKDKDNVAPATNVGSNG[Hyp]-NH2; disulfide 2-7; N-terminus assumed), the EC50 was 6 pM on hAMY3 receptor and above 5 µM on hAM1 receptor. Also, in data set [1], the “Max ThT signal (%)” value is 27.550%.

Take `CC[C@H](C)[C@H](NC(=O)[C@H](CCC(N)=O)NC(=O)[C@H](Cc1c[nH]cn1)NC(=O)[C@H](C)NC(=O)[C@H](CC(C)C)NC(=O)[C@H](CCCNC(N)=O)NC(=O)[C@H](CCC(N)=O)NC(=O)[C@@H](NC(=O)[C@@H](NC(=O)[C@@H]1CSSC[C@H](NC(=O)[C@@H](N)CCCCN)C(=O)N[C@@H](CC(N)=O)C(=O)N[C@@H]([C@@H](C)O)C(=O)N[C@@H](C)C(=O)N[C@@H]([C@@H](C)O)C(=O)N1)[C@@H](C)O)C(C)C)C(=O)N[C@@H](Cc1ccc(O)cc1)C(=O)N[C@@H](CCC(N)=O)C(=O)N[C@@H](Cc1ccccc1)C(=O)N[C@H](C(=O)N[C@@H](CCCCN)C(=O)N[C@@H](CC(=O)O)C(=O)N[C@@H](CCCCN)C(=O)N[C@@H](CC(=O)O)C(=O)N[C@@H](CC(N)=O)C(=O)N[C@H](C(=O)N[C@@H](C)C(=O)N1CCC[C@H]1C(=O)N1CCC[C@H]1C(=O)N[C@H](C(=O)N[C@@H](CC(N)=O)C(=O)N[C@H](C(=O)NCC(=O)N[C@@H](CO)C(=O)N[C@@H](CC(N)=O)C(=O)NCC(=O)N1C[C@H](O)C[C@H]1C(N)=O)C(C)C)[C@@H](C)O)C(C)C)[C@@H](C)O` [compound 253] (H-KCNTATCTVQ[Cit]LAHQIYQFTKDKDNVAPPTNVGSNG[Hyp]-NH2; disulfide 2-7; N-terminus assumed): the EC50 is 4 pM at hAMY3 receptor and above 5 µM at hAM1 receptor. Further, the “Max ThT signal (%)” value in data set [1] amounted to 9.600%.

On to `CC[C@H](C)[C@H](NC(=O)[C@H](CCC(N)=O)NC(=O)[C@H](Cc1c[nH]cn1)NC(=O)[C@H](C)NC(=O)[C@H](CC(C)C)NC(=O)[C@H](CCCNC(N)=O)NC(=O)[C@H](CCC(N)=O)NC(=O)[C@@H](NC(=O)[C@@H](NC(=O)[C@@H]1CSSC[C@H](NC(=O)[C@@H](N)CCCCN)C(=O)N[C@@H](CC(N)=O)C(=O)N[C@@H]([C@@H](C)O)C(=O)N[C@@H](C)C(=O)N[C@@H]([C@@H](C)O)C(=O)N1)[C@@H](C)O)C(C)C)C(=O)N[C@@H](Cc1ccc(O)cc1)C(=O)N[C@@H](CCC(N)=O)C(=O)N[C@@H](Cc1ccccc1)C(=O)N[C@H](C(=O)N[C@@H](CC(=O)O)C(=O)N[C@@H](CCCCN)C(=O)N[C@@H](CC(=O)O)C(=O)N[C@@H](CCCCN)C(=O)N[C@@H](CC(=O)O)C(=O)N[C@@H](CC(N)=O)C(=O)N[C@H](C(=O)N1CCC[C@H]1C(=O)N1CCC[C@H]1C(=O)N[C@H](C(=O)N[C@@H](CC(N)=O)C(=O)N[C@H](C(=O)NCC(=O)N[C@@H](CO)C(=O)N[C@@H](CC(N)=O)C(=O)NCC(=O)N1C[C@H](O)C[C@H]1C(N)=O)C(C)C)[C@@H](C)O)C(C)C)[C@@H](C)O` [compound 254] (H-KCNTATCTVQ[Cit]LAHQIYQFTDKDKDNVPPTNVGSNG[Hyp]-NH2; disulfide 2-7), for which the values for the EC50 at hAMY3 receptor and on hAM1 receptor were 6 pM and above 5 µM, respectively. Besides, the “Max ThT signal (%)” value in data set [1] is 12.050%.

The record behind these values is patent publication US12139520B2 (priority 2020, dated 2024).
